Experimental data as given in patent US20030105360A1, “Form a of fluoxetine hydrochloride” (priority 2001, published 2003).

Type: physicochemical
Description: Using the appropriately precise DSC method set forth in Example 12 herein, wherein the analysis is conducted at a maximum rate of 1° C. per minute, multiple levels of polymorph Forms A, B, and C each are typically present in fluoxetine hydrochloride API (FIGS. 2 and 4). When such API is prepared via any one of the methods of the present invention, recrystallization, slurry, and compression, and analyzed using said DSC method, a single endotherm occurring at a temperature range from about 155° C. to about 160° C., and more preferably from about 157° C. to about 159° C., confirms the presence of Form A of fluoxetine hydrochloride (FIGS. 6 and 8 for the compression and slurry methods, respectively). […] Accordingly, the slurry method for preparing pure and essentially pure Form A is preferred, while the compression method is especially preferred.
Differential Scanning Calorimetry for fluoxetine hydrochloride. The method described in Example 11 was used, except the heating rate was changed from 10° C. per minute to a heating rate of 1° C. per minute from 145° C. to 175° C.

Q: With `CNCCC(Oc1ccc(C(F)(F)F)cc1)c1ccccc1.Cl` (racemic) [Form A, (±)-N-methyl-3-phenyl-2-[α,α,α-trifluoro-p-tolyl) oxy] propylamine hydrochloride] as the compound, how does the “polymorphic forms found by DSC after storage under accelerated stability conditions” value read?
A: two additional polymorphs of fluoxetine hydrochloride, Forms D and E, were prepared

Q: What about the “polymorphic forms found by DSC thermogram (FIG. 11) after storage” value (pure Form A prepared via recrystallization method, stored at 40° C. and 75% relative humidity, within three days) of the same compound?
A: Forms A, D, and E, which formed within three days
